Assays:
[1] = test system: hypertensive effect of TXA2 mimetic agent U46619; assay: U46619-induced hypertensive effect in anaesthetised rats, test (d); type: in vivo, rats (Alderley Park strain)
Method: (d) Male rats (Alderley Park strain) are anaesthetised with sodium pentobarbital and blood pressure is monitored at the carotid artery. The TXA2 mimetic agent U46619 is administered intravenously via the jugular vein and an ED50 (dose necessary to produce 50% of the maximum hypertensive effect) is established (n=3). The ED50 for U46619 is approximately 5 μg/kg. A test compound is then administered either intravenously via the jugular vein or orally via a cannula directly into the stomach and the animal challenged with an ED50 dose of U46619, five minutes after dosing with test compound and then successively every ten minutes until the hypertensive effect of U46619 is no longer blocked.

[2] = test system: bronchoconstriction induced by TXA2 mimetic agent U46619; assay: bronchoconstriction test, Konzett-Rossler guinea-pig model, test (c); type: in vivo; settings: some 3 hours following an oral dose of 5mg/kg, U46619 i.v. 1-1.5 μg/kg
Method: (c) a bronchoconstriction test involving measuring the inhibition by a test compound of the bronchoconstriction induced in the Konzett-Rossler guinea-pig model (as modified by Collier and James, Brit. J. Pharmacol., 1967, 30, 283-307) by intravenous administration of the TXA2 mimetic agent, U46619 at 1-1.5 μg/kg.

[3] = test system: rabbit aortal strip, agonist TXA2 mimetic agent U46619; assay: rabbit aortal strip model, test (a); parameters: species or system isolated tissue
Source text: (a) The rabbit aortal strip model devised by Piper and Vane (Nature, 1969, 223, 29-35) using as agonist the TXA2 mimetic agent known as U46619 (R. L. Jones et alia in "Chemistry, Biochemistry and Pharmacological Activity of Prostanoids", eds. S. M. Roberts and F. Scheinmann, at p.211; Pergamon Press, 1979);

| SMILES | inhibition of the hypertensive effect ([1]; test (d), 80-90 minutes following an oral dose of 50 mg./kg., challenge with ED50 dose of U46619) | reduction of bronchoconstriction [2] | pA2 [3] | ED50 ([1]; Rattus norvegicus, iv, intravenously via the jugular vein, anaesthetised male rats, n=3, read-out: ED50 (dose necessary to produce 50% of the maximum hypertensive effect)) [µg/kg] |
| --- | --- | --- | --- | --- |
| CCC[C@H]1OC[C@H](c2ccccc2C)[C@@H](CCCCCCC(=O)O)O1 (relative stereo) [Example 12, 7-([2,4-cis,4,5-trans]-2-n-propyl-5-o-tolyl-1,3-dioxan-4-yl)heptanoic acid] | complete inhibition of the hypertensive effect | significant reduction of bronchoconstriction | 6.7 |  |
| CCCCC[C@H](O)/C=C/[C@@H]1[C@@H](C/C=C\CCCC(=O)O)[C@H]2CO[C@@H]1C2 [Example U46619, reference compound] |  |  |  | ~5 |

Source: patent US4704399A, “1,3-dioxan-4-ylalkenoic acids” (Imperial Chemical Industries PLC, priority 1983, dated 1987)
